Data as given in patent US20100069480A1, “METHODS AND COMPOSITIONS FOR THE TREATMENT OF CANCER” (Bionovo, Inc. A Delaware Corporation, priority 2008, published 2010).

Assays:
Type in all cases: cell-based, human
[1] = test system: MDA MB 231 and SKBr3 breast cancer cells; assay: induction of ROS, CM-H2DCFDA fluorescence; conditions: for induction of cellular ROS: CM-H2DCFDA probe
Description: (§1) The following parameters were examined: • 1. Induction of the loss of the mitochondrial transmembrane potential (MTP). […] Induction of reactive oxygen species (ROS). Induced fluorescence from the cell permeable indicators of ROS such as dihydroethidium (specific for superoxide) (FIG. 2), CM-H2DCFDA (most types of ROS) (FIG. 1) and MitoSOX (mitochondrially derived superoxide) (FIG. 3) was studied using a fluorescent plate reader and FACS. • 3. Compounds were also tested for the potential cellular sources of ROS induced using either specific indicators for ROS of mitochondrial origin, and/or specific inhibitors of ROS production by known sources such as mitochondria, ubiquinone oxidoreductase NQO (mitochondrial complex I) and NADPH oxidases. • 4. Compounds were tested for induction of DNA damage using test known as comet assay that allows detection of DNA damage in individual cells. (FIG. 4) • 5. The induction of death in cells treated with the compounds was examined using propidium iodide test for cell permeability followed by analysis on FACS. • 6. The mode of cell death (i.e., apoptosis versus necrosis) was studied using several criteria: conversion of cells to positivity for binding Annexin V; DNA fragmentation (characteristic of apoptotic death) and decrease in cellular ATP levels (commonly observed during necrotic death) (FIG. 5). […]
DCFDA is nonfluorescent in reduced form and is readily membrane-permeant. Cellular esterases cleave its acetate groups. The thiol-reactive chloromethyl group then binds to cellular thiols, trapping the dye inside the cell, where oxidation converts it to the fluorescent form. CM-H2DCFDA is oxidized by cellular hydrogen peroxide, hydroxyl radicals, and various free radical products lying downstream from hydrogen peroxide. It is relatively insensitive to oxidation by superoxide. However, because hydrogen peroxide is produced by dismutation of superoxide, CM-H2DCFDA serves as an indirect indicator of superoxide production.
FIG. 1. […] The indicated compounds were added to cells at 20 μg/ml growth medium, followed by addition of 10 μM CM-H2 DCFDA. Inhibitor of mitochondrial respiration, NaN3, was added at 10 mM. After 30 minute incubation, cells were washed in PBS and analyzed on FACScan for fluorescence.

[2] = test system: MDA MB 231 and SKBr3 breast cancer cells; assay: mode of cell death: Annexin V binding, DNA fragmentation
Description: The following parameters were examined: • 1. Induction of the loss of the mitochondrial transmembrane potential (MTP). […] Induction of reactive oxygen species (ROS). Induced fluorescence from the cell permeable indicators of ROS such as dihydroethidium (specific for superoxide) (FIG. 2), CM-H2DCFDA (most types of ROS) (FIG. 1) and MitoSOX (mitochondrially derived superoxide) (FIG. 3) was studied using a fluorescent plate reader and FACS. • 3. Compounds were also tested for the potential cellular sources of ROS induced using either specific indicators for ROS of mitochondrial origin, and/or specific inhibitors of ROS production by known sources such as mitochondria, ubiquinone oxidoreductase NQO (mitochondrial complex I) and NADPH oxidases. • 4. Compounds were tested for induction of DNA damage using test known as comet assay that allows detection of DNA damage in individual cells. (FIG. 4) • 5. The induction of death in cells treated with the compounds was examined using propidium iodide test for cell permeability followed by analysis on FACS. • 6. The mode of cell death (i.e., apoptosis versus necrosis) was studied using several criteria: conversion of cells to positivity for binding Annexin V; DNA fragmentation (characteristic of apoptotic death) and decrease in cellular ATP levels (commonly observed during necrotic death) (FIG. 5). 1. Induction of the loss of the mitochondrial transmembrane potential (MTP). […] Induction of reactive oxygen species (ROS). Induced fluorescence from the cell permeable indicators of ROS such as dihydroethidium (specific for superoxide) (FIG. 2), CM-H2DCFDA (most types of ROS) (FIG. 1) and MitoSOX (mitochondrially derived superoxide) (FIG. 3) was studied using a fluorescent plate reader and FACS. • 3. Compounds were also tested for the potential cellular sources of ROS induced using either specific indicators for ROS of mitochondrial origin, and/or specific inhibitors of ROS production by known sources such as mitochondria, ubiquinone oxidoreductase NQO (mitochondrial complex I) and NADPH oxidases. • 4. […]

[3] = test system: MDA MB 231 and SKBr3 breast cancer cells; assay: DNA damage, comet assay
Description: as §1

[4] = test system: MDA MB 231 and SKBr3 breast cancer cells; assay: mitochondrially derived superoxide, MitoSOX
Description: (§2) The following parameters were examined: • 1. Induction of the loss of the mitochondrial transmembrane potential (MTP). […] Induction of reactive oxygen species (ROS). Induced fluorescence from the cell permeable indicators of ROS such as dihydroethidium (specific for superoxide) (FIG. 2), CM-H2DCFDA (most types of ROS) (FIG. 1) and MitoSOX (mitochondrially derived superoxide) (FIG. 3) was studied using a fluorescent plate reader and FACS. • 3. Compounds were also tested for the potential cellular sources of ROS induced using either specific indicators for ROS of mitochondrial origin, and/or specific inhibitors of ROS production by known sources such as mitochondria, ubiquinone oxidoreductase NQO (mitochondrial complex I) and NADPH oxidases. • 4. Compounds were tested for induction of DNA damage using test known as comet assay that allows detection of DNA damage in individual cells. (FIG. 4) • 5. The induction of death in cells treated with the compounds was examined using propidium iodide test for cell permeability followed by analysis on FACS. • 6. […] Induced fluorescence from the cell permeable indicators of ROS such as dihydroethidium (specific for superoxide) (FIG. 2), CM-H2DCFDA (most types of ROS) (FIG. 1) and MitoSOX (mitochondrially derived superoxide) (FIG. 3) was studied using a fluorescent plate reader and FACS. • 3. […]

[5] = test system: MDA MB 231 and SKBr3 breast cancer cells; assay: cellular ATP content, ATP bioluminescence assay
Description: as §2

[6] = Table 11, confirmed in two breast cancer cell lines

SMILES	Induction of ROS (fold) [1, 6] [fold]	cell death and its mode [2]	induction of cellular ROS [1]	Induction of ROS (fold) ([1]; Table 12)	induction of DNA damage [3]	conversion of MitoSOX, detector of mitochondrially derived superoxide [4]	Induction of ROS (fold) ([1]; Table 11, confirmed in two breast cancer cell lines, listed as cmpd 9)	change in cellular ATP levels [5]
O=c1cc(-c2ccc(O)cc2)oc2cc(O)cc(O)c12 [cmpd 4]	0.6	–	–	–	–	–	–	–
O=c1cc(-c2ccc(O)cc2)oc2c(O)c(O)cc(O)c12 [Isoscutellarein]	1.5	cell death that has hallmarks of programmed necrosis	induce ROS, but of extra-mitochondrial origin	1.5	induce DNA damage	–	–	–
O=c1cc(-c2ccc(O)cc2)oc2cc(O)c(O)c(O)c12 [Scutellarein]	2.4	cell death that has hallmarks of programmed necrosis	induce ROS, but of extra-mitochondrial origin	–	induce DNA damage	–	–	–
O=C1CC(c2ccc(O)cc2)Oc2cc(O)c(O)c(O)c21 (centres unmarked) [Carthamidin]	–	–	induce ROS, but of extra-mitochondrial origin	–	induce DNA damage	–	–	–
O=C1CC(c2ccc(O)cc2)Oc2c(O)c(O)cc(O)c21 (centres unmarked) [Isocarthamidin]	–	–	induce ROS, but of extra-mitochondrial origin	–	induce DNA damage	–	–	–
O=c1cc(-c2ccc(O)cc2)oc2cc(O)cc(O)c12 [Apigenin]	–	induce significant cell death characterized as apoptotic	–	1.5	do not induce DNA damage	converted to its fluorescent form	1.5	slight but consistent increase in ATP levels
